The supplement of paper PMC12463676, “Small-molecule dissolution of stress granules by redox modulation benefits ALS models” (Nature Chemical Biology, 2025)

Tests used:
lipoamide = compound: NC(=O)CCCCC1CCSS1 [lipoamide]; assay: thermal stability z-score vs DMSO; higher = more thermally stabilized by treatment; conditions: HeLa, lipoamide concentration 100 µM
Method: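 Cellular thermal proteome profiling in HeLa cells. Cells were treated with 100 µM lipoamide for 1 h, with or without 1 mM arsenate for a further 1 h, then heated to ten temperatures (37-66.3 °C), and soluble protein was quantified by TMT mass spectrometry relative to 0.1% DMSO controls. The thermal stability score (sum of log2 fold changes minus the abundance score) was transformed to a z-score; mean of n = 3 experiments.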

potassium arsenate = compound: O=[As]([O-])(O)O.[K+] [potassium arsenate]; assay: as above; conditions: HeLa; arsenate concentration 1 mM
Method: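 Cellular thermal proteome profiling in HeLa cells treated with 1 mM arsenate for 1 h (DMSO pretreatment), heated to ten temperatures (37-66.3 °C). Soluble protein was quantified by TMT mass spectrometry relative to DMSO controls; the thermal stability score was transformed to a z-score; mean of n = 3 experiments.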

[1] = arsenate co-treatment: 1 mM arsenate 1 h
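Further: each temperature applied for 3 min, abundance score taken as mean log2 fold change at the two lowest temperatures, z-score obtained by mean subtraction and division by SD.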

UniProt O96006, sequence (O96006 whole entry): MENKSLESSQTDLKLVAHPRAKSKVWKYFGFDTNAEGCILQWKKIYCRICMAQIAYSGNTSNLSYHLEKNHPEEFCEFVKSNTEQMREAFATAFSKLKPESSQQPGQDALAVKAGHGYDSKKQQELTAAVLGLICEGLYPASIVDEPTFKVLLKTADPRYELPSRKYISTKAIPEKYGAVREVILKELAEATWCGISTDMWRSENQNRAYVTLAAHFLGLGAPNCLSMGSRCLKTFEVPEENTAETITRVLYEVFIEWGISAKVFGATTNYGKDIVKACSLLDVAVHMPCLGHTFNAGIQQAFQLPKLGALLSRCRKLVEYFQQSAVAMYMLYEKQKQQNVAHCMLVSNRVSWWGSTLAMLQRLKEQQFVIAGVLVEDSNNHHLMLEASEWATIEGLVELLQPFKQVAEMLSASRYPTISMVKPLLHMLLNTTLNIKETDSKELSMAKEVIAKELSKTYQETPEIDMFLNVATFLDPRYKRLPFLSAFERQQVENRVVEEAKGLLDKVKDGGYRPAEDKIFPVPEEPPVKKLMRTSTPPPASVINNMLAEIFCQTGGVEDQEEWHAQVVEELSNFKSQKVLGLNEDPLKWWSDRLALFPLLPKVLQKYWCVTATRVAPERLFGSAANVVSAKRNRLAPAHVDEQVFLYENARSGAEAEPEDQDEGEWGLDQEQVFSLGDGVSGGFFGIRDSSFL
UniProt Q9Y289, sequence (Q9Y289 whole entry): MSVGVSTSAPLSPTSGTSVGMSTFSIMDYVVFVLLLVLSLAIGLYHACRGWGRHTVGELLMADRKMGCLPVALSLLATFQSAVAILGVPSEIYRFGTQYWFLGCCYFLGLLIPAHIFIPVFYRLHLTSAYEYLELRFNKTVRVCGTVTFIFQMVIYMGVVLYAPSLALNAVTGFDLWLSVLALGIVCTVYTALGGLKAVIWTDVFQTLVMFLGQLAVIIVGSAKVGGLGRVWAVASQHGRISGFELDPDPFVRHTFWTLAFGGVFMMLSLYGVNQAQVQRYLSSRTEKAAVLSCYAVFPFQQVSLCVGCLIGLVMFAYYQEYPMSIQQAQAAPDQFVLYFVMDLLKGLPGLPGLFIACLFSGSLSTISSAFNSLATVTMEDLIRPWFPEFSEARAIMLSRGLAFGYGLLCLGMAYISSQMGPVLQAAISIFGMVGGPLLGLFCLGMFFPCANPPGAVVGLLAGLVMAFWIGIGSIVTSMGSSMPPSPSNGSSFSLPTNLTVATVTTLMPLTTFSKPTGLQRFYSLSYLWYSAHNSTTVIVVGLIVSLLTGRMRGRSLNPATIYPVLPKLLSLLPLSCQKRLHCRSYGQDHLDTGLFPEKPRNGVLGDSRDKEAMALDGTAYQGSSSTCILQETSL
UniProt Q9UBU6, sequence (Q9UBU6 whole entry): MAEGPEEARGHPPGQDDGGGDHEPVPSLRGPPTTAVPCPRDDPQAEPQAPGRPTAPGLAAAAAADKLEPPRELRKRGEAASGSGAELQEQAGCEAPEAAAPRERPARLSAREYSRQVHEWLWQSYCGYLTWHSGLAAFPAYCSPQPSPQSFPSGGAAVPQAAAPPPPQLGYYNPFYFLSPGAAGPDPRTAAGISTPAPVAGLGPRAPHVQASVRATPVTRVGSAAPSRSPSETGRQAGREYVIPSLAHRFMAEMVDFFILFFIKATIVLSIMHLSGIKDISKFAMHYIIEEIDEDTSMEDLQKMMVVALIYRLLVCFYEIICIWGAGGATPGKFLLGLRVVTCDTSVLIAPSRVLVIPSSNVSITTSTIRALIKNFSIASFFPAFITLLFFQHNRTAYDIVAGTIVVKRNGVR
UniProt Q86UE8, sequence (Q86UE8 whole entry, looked up): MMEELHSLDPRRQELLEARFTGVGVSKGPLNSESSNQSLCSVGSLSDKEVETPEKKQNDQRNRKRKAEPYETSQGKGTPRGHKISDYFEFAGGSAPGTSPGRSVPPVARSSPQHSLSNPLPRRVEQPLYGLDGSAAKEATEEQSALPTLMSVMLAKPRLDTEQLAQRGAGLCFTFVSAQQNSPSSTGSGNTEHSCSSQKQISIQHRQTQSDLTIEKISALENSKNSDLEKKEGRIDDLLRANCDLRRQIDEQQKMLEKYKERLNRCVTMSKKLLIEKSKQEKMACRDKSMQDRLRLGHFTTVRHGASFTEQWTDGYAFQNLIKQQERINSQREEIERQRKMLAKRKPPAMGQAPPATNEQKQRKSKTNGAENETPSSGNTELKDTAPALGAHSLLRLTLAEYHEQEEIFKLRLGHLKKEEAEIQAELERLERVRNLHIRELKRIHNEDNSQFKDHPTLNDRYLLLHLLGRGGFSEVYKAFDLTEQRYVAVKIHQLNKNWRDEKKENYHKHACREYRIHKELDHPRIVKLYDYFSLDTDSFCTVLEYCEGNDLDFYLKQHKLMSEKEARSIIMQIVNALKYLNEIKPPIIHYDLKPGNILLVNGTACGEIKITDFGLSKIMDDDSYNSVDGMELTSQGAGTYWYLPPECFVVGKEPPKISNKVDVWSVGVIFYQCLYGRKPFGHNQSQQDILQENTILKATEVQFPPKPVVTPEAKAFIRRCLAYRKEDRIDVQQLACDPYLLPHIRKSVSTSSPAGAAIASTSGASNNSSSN
UniProt Q96BY6, sequence (Q96BY6 whole entry): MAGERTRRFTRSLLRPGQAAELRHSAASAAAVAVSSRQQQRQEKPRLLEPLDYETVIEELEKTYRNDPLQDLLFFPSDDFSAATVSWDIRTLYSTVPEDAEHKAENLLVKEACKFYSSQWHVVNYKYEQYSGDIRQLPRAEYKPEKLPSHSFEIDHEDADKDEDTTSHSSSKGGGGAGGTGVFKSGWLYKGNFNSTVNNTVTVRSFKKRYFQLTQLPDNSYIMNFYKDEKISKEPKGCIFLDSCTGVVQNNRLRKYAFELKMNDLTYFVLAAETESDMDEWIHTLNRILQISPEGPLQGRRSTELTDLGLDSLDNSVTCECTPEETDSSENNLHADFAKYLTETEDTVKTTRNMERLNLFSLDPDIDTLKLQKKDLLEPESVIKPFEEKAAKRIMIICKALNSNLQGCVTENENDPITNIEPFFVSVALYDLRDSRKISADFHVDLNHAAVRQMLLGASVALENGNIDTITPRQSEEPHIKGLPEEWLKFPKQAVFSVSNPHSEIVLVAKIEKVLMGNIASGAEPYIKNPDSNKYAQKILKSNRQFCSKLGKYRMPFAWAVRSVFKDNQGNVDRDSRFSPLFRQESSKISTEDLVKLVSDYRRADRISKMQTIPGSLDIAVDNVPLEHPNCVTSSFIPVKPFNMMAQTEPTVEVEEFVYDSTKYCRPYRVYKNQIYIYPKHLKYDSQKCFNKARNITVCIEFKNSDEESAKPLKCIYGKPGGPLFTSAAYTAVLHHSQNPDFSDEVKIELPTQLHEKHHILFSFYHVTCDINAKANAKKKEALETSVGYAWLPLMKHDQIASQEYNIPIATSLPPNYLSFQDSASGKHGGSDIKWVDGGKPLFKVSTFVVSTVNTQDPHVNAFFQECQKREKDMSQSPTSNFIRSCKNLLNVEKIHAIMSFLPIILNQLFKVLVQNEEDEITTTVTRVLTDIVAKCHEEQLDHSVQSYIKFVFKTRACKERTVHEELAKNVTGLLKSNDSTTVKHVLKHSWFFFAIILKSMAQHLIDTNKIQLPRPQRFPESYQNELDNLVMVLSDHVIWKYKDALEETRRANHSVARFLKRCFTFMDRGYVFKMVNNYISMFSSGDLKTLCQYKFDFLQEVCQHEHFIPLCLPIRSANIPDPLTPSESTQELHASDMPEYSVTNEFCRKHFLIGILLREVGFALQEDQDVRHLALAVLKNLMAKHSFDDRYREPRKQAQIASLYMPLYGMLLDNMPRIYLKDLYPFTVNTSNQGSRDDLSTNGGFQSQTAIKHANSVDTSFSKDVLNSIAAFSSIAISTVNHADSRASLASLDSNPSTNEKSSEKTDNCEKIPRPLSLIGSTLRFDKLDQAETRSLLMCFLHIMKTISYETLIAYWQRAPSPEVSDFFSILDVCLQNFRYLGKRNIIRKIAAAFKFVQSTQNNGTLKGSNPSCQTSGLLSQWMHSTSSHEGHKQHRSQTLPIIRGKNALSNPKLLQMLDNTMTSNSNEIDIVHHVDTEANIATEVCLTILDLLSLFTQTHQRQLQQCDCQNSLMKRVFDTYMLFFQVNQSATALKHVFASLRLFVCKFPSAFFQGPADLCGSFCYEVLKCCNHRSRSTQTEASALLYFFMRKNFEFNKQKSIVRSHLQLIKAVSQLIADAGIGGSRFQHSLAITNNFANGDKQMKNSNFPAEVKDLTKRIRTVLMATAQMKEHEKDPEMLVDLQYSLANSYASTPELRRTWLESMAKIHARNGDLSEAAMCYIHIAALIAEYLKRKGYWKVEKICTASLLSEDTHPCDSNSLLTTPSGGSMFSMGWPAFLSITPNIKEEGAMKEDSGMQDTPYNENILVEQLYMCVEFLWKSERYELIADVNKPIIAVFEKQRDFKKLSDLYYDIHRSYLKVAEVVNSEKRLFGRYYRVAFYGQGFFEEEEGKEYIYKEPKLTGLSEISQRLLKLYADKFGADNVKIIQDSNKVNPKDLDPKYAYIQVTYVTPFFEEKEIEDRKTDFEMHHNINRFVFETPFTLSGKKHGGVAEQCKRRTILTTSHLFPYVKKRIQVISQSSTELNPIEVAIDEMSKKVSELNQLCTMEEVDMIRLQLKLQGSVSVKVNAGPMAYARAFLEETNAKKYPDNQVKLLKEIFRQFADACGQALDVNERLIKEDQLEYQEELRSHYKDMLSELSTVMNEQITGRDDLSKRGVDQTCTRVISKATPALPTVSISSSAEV
UniProt P06132, sequence (P06132 whole entry): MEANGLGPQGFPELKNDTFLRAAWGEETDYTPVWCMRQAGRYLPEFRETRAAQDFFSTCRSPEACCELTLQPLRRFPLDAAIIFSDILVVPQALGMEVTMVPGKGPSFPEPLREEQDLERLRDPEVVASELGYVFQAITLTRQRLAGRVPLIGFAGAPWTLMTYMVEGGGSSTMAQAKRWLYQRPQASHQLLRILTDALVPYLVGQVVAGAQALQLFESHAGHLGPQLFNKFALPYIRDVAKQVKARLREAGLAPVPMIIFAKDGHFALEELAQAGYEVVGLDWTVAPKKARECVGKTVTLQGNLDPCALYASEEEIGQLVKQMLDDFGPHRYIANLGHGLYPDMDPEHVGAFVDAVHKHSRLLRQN

Target	thermal stability z-score (lipoamide; [1])	thermal stability z-score (lipoamide; arsenate co-treatment: none)	thermal stability z-score (potassium arsenate)
TLK2 (UniProt Q86UE8)	-0.838	0.0336	0.502
RRAS2 (UniProt P62070)	0.129	0.0499	0.544
RAD18 (UniProt Q9NS91)	-0.082	-0.0293	-0.0799
NUDT15 (UniProt Q9NV35)	0.686	0.121	-0.373
LAMA1 (UniProt P25391)	-2	-1.82	1.13
GPT2 (UniProt Q8TD30)	0.342	0.427	-0.153
FAM83D (UniProt Q9H4H8)	-0.472	-0.432	0.641
C2CD5 (UniProt Q86YS7)	0.332	0.297	-0.133
GTPBP1 (UniProt O00178)	-0.325	-0.107	0.493
EHD2 (UniProt Q9NZN4)	-0.612	-0.489	-0.781
SLC5A6 (UniProt Q9Y289)	-0.586	-0.512	0.342
HMGN1 (UniProt P05114)	0.242	0.681	-0.289
ZAK (UniProt Q9NYL2)	-0.237	-0.237	-0.105
ANXA6 (UniProt P08133)	3.2	3.6	2.15
RAN (UniProt P62826)	0.345	-0.105	0.547
CRIP1 (UniProt P50238)	1.49	1.68	1.18
GTPBP10 (UniProt A4D1E9)	-0.946	0.2	0.522
BCL10 (UniProt O95999)	0.00285	0.509	2.16

Target	thermal stability z-score (lipoamide; [1])	thermal stability z-score (lipoamide; arsenate co-treatment: none)	thermal stability z-score (potassium arsenate)
PSAP (UniProt P07602)	0.0503	-0.136	-0.336
HMGCS1 (UniProt Q01581)	1.34	0.0808	0.164
CPD (UniProt O75976)	-0.796	-0.794	0.546
JMY (UniProt Q8N9B5)	-0.0736	-0.168	-0.323
ZBED1 (UniProt O96006)	-0.243	-0.292	0.00958
XPOT (UniProt O43592)	-0.645	-0.112	-0.212
RXRB (UniProt P28702)	0.117	0.096	-0.458
DOCK10 (UniProt Q96BY6)	-0.106	-0.259	0.0405
NUDT19 (UniProt A8MXV4)	-0.133	0.126	-0.208
ABHD12 (UniProt Q8N2K0)	-0.435	-0.517	-0.351
ROCK1 (UniProt Q13464)	-0.134	0.211	-0.122
IRF2BPL (UniProt Q9H1B7)	0.0789	0.157	-0.124
PCLO (UniProt Q9Y6V0)	0.448	0.235	-0.0814
FAM8A1 (UniProt Q9UBU6)	-0.425	-0.579	-0.315
UROD (UniProt P06132)	0.0739	0.0184	-0.0518
DYRK1A (UniProt Q13627)	-0.118	-0.0216	0.54
CTH (UniProt P32929)	0.473	0.559	0.596
ALCAM (UniProt Q13740)	0.558	0.931	0.534
